Test results: PubChem BioAssay AID2060507 (Molecular Pharmacology Branch, DTP, NCI, 2025)

Tested on: 519858-162-T-J1-PDC complex spheroid viability
Test: Anticancer human tumor 519858-162-T-J1-PDC patient-derived colon adenocarcinoma cell line growth inhibition [GQUAD]
Settings: for IC50: curve of first compound; for viability, T/C: stronger effect = lower value
In short: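 Tumor cells were grown as complex spheroids with HUVEC endothelial cells and mesenchymal stem cells as stroma. G-quadruplex stabilizers were combined with targeted agents over half-log dilutions from near the clinical Cmax, or from 10 microM.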

[1] = second compound 0.0316 µM, first compound 0.0316 µM
[2] = second compound 0.0316 µM, first compound 0.1 µM
[3] = second compound 0.0316 µM, first compound 0.316 µM
[4] = second compound 0.0316 µM, first compound 1 µM
[5] = second compound 0.0316 µM, first compound 3.16 µM
[6] = second compound 0.0316 µM, first compound 10 µM
[7] = second compound 0.1 µM, first compound 0.0316 µM
[8] = second compound 0.1 µM, first compound 0.1 µM
[9] = second compound 0.1 µM, first compound 0.316 µM
[10] = second compound 0.1 µM, first compound 1 µM
[11] = second compound 0.1 µM, first compound 3.16 µM
[12] = second compound 0.1 µM, first compound 10 µM
[13] = second compound 0.316 µM, first compound 0.0316 µM
[14] = second compound 0.316 µM, first compound 0.1 µM
[15] = second compound 0.316 µM, first compound 0.316 µM
[16] = second compound 0.316 µM, first compound 1 µM
[17] = second compound 0.316 µM, first compound 3.16 µM
[18] = second compound 0.316 µM, first compound 10 µM
[19] = second compound 1 µM, first compound 0.0316 µM
[20] = second compound 1 µM, first compound 0.1 µM
[21] = second compound 1 µM, first compound 0.316 µM
[22] = second compound 1 µM, first compound 1 µM
[23] = second compound 1 µM, first compound 3.16 µM
[24] = second compound 1 µM, first compound 10 µM
[25] = second compound 3.16 µM, first compound 0.0316 µM
[26] = second compound 3.16 µM, first compound 0.1 µM
[27] = second compound 3.16 µM, first compound 0.316 µM
[28] = second compound 3.16 µM, first compound 1 µM
[29] = second compound 3.16 µM, first compound 3.16 µM
[30] = second compound 3.16 µM, first compound 10 µM
[31] = second compound 10 µM, first compound 0.0316 µM
[32] = second compound 10 µM, first compound 0.1 µM
[33] = second compound 10 µM, first compound 0.316 µM
[34] = second compound 10 µM, first compound 1 µM
[35] = second compound 10 µM, first compound 3.16 µM
[36] = second compound 10 µM, first compound 10 µM
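Note: spheroids exposed to compounds for 7 days.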
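Throughout, for viability, T/C: 100% = DMSO vehicle control viability.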

With `CC(=O)O[C@H]1C(=O)[C@@]2(C)[C@H]([C@H](OC(=O)c3ccccc3)[C@]3(O)C[C@H](OC(=O)[C@H](O)[C@@H](NC(=O)c4ccccc4)c4ccccc4)C(C)=C1C3(C)C)[C@]1(OC(C)=O)CO[C@@H]1C[C@@H]2O` + Cc1[nH]c2ccc(F)cc2c1-c1nc2c3cccnc3c3ncccc3c2[nH]1 the IC50 (second compound 0.0316 µM) was > 10 µM, the IC50 (second compound 0.1 µM) was > 10 µM and the IC50 (second compound 0.316 µM) was > 10 µM. For the same molecule, the IC50 (second compound 1 µM) was > 10 µM, the IC50 (second compound 3.16 µM) was > 10 µM and the IC50 (second compound 10 µM) was > 10 µM. For the same molecule, the viability, T/C [1] was 80.1%, the viability, T/C [2] was 136% and the viability, T/C [3] was 103%. It also gave a viability, T/C [4] of 82.4%, a viability, T/C [5] of 71.2% and a viability, T/C [6] of 79.7%. For the same molecule, the viability, T/C [7] was 87.8%, the viability, T/C [8] was 97.5% and the viability, T/C [9] was 109%. For the same molecule, the viability, T/C [10] was 98.9%, the viability, T/C [11] was 97% and the viability, T/C [12] was 116%. It also gave a viability, T/C [13] of 91.1%, a viability, T/C [14] of 78% and a viability, T/C [15] of 70.8%. The viability, T/C [16] was 72.3%, the viability, T/C [17] was 108% and the viability, T/C [18] was 126%. For the same molecule, the viability, T/C [19] was 116%, the viability, T/C [20] was 62.5% and the viability, T/C [21] was 58.5%. For the same molecule, the viability, T/C [22] was 89.3%, the viability, T/C [23] was 69.4% and the viability, T/C [24] was 109%. It also gave a viability, T/C [25] of 67.5%, a viability, T/C [26] of 77.5% and a viability, T/C [27] of 51.1%. The viability, T/C [28] was 106%, the viability, T/C [29] was 77.8% and the viability, T/C [30] was 55.5%. It also gave a viability, T/C [31] of 54.5%, a viability, T/C [32] of 93.7% and a viability, T/C [33] of 68.1%. For the same molecule, the viability, T/C [34] was 74.4%, the viability, T/C [35] was 75.5% and the viability, T/C [36] was 104%.

With `CC[C@@]1(O)C(=O)OCc2c1cc1n(c2=O)Cc2cc3c(CN(C)C)c(O)ccc3nc2-1` + Cc1[nH]c2ccc(F)cc2c1-c1nc2c3cccnc3c3ncccc3c2[nH]1 the IC50 (second compound 0.0316 µM) was > 0.316 µM, the IC50 (second compound 0.1 µM) was > 0.316 µM and the IC50 (second compound 0.316 µM) was > 0.316 µM. For the same molecule, the IC50 (second compound 1 µM) was > 0.316 µM, the IC50 (second compound 3.16 µM) was 0.000999 µM and the IC50 (second compound 10 µM) was > 0.316 µM. For the same molecule, the viability, T/C (second compound 0.0316 µM, first compound 0.000999 µM) was 119%, the viability, T/C (second compound 0.0316 µM, first compound 0.00316 µM) was 106% and the viability, T/C (second compound 0.0316 µM, first compound 0.00999 µM) was 103%. For the same molecule, the viability, T/C [1] was 76.5%, the viability, T/C (second compound 0.0316 µM, first compound 0.0999 µM) was 72.1% and the viability, T/C [3] was 88.9%. The viability, T/C (second compound 0.1 µM, first compound 0.000999 µM) was 86%, the viability, T/C (second compound 0.1 µM, first compound 0.00316 µM) was 90.9% and the viability, T/C (second compound 0.1 µM, first compound 0.00999 µM) was 94.3%. It also gave a viability, T/C [7] of 88.9%, a viability, T/C (second compound 0.1 µM, first compound 0.0999 µM) of 73.2% and a viability, T/C [9] of 75.5%. It also gave a viability, T/C (second compound 0.316 µM, first compound 0.000999 µM) of 58.7%, a viability, T/C (second compound 0.316 µM, first compound 0.00316 µM) of 97.1% and a viability, T/C (second compound 0.316 µM, first compound 0.00999 µM) of 99.3%. The viability, T/C [13] was 93.8%, the viability, T/C (second compound 0.316 µM, first compound 0.0999 µM) was 97.2% and the viability, T/C [15] was 69.4%. For the same molecule, the viability, T/C (second compound 1 µM, first compound 0.000999 µM) was 86%, the viability, T/C (second compound 1 µM, first compound 0.00316 µM) was 60.9% and the viability, T/C (second compound 1 µM, first compound 0.00999 µM) was 85.1%. The viability, T/C [19] was 104%, the viability, T/C (second compound 1 µM, first compound 0.0999 µM) was 69.7% and the viability, T/C [21] was 75.9%. It also gave a viability, T/C (second compound 3.16 µM, first compound 0.000999 µM) of 56.4%, a viability, T/C (second compound 3.16 µM, first compound 0.00316 µM) of 55.6% and a viability, T/C (second compound 3.16 µM, first compound 0.00999 µM) of 46.5%. The viability, T/C [25] was 48.6%, the viability, T/C (second compound 3.16 µM, first compound 0.0999 µM) was 78.1% and the viability, T/C [27] was 77.1%. For the same molecule, the viability, T/C (second compound 10 µM, first compound 0.000999 µM) was 60%, the viability, T/C (second compound 10 µM, first compound 0.00316 µM) was 58.3% and the viability, T/C (second compound 10 µM, first compound 0.00999 µM) was 50.7%. For the same molecule, the viability, T/C [31] was 60.9%, the viability, T/C (second compound 10 µM, first compound 0.0999 µM) was 85.3% and the viability, T/C [33] was 60%.

`COc1cc(C2c3cc4c(cc3C(OC3OC5COC(C)OC5C(O)C3O)C3COC(=O)C23)OCO4)cc(OC)c1O` (stereo unspecified) + Cc1[nH]c2ccc(F)cc2c1-c1nc2c3cccnc3c3ncccc3c2[nH]1 was tested, and the IC50 (second compound 0.0316 µM) was > 10 µM, the IC50 (second compound 0.1 µM) was > 10 µM and the IC50 (second compound 0.316 µM) was > 10 µM. The IC50 (second compound 1 µM) was > 10 µM, the IC50 (second compound 3.16 µM) was > 10 µM and the IC50 (second compound 10 µM) was > 10 µM. The viability, T/C [1] was 114%, the viability, T/C [2] was 99.6% and the viability, T/C [3] was 93.8%. For the same molecule, the viability, T/C [4] was 124%, the viability, T/C [5] was 98.2% and the viability, T/C [6] was 64.6%. For the same molecule, the viability, T/C [7] was 127%, the viability, T/C [8] was 130% and the viability, T/C [9] was 93.2%. The viability, T/C [10] was 89.8%, the viability, T/C [11] was 55.6% and the viability, T/C [12] was 60.4%. It also gave a viability, T/C [13] of 90.6%, a viability, T/C [14] of 109% and a viability, T/C [15] of 57.4%. It also gave a viability, T/C [16] of 86.5%, a viability, T/C [17] of 86.9% and a viability, T/C [18] of 78.4%. The viability, T/C [19] was 88.8%, the viability, T/C [20] was 75.8% and the viability, T/C [21] was 108%. For the same molecule, the viability, T/C [22] was 75.9%, the viability, T/C [23] was 81% and the viability, T/C [24] was 71.4%. It also gave a viability, T/C [25] of 65.9%, a viability, T/C [26] of 76.9% and a viability, T/C [27] of 66.9%. The viability, T/C [28] was 75%, the viability, T/C [29] was 58.6% and the viability, T/C [30] was 80.3%. For the same molecule, the viability, T/C [31] was 69.4%, the viability, T/C [32] was 63.4% and the viability, T/C [33] was 65.8%. For the same molecule, the viability, T/C [34] was 68.5%, the viability, T/C [35] was 74.8% and the viability, T/C [36] was 82.7%.
